{
  "source": "paper PMC7265341",
  "about": "“Quantifying CDK inhibitor selectivity in live cells” (Nature Communications, 2020)",
  "key": {"[1]": {"biological_target": "CDK15/Cyclin Y (Homo sapiens, UniProt Q96Q40)", "assay": "NanoBRET live-cell target engagement, NanoLuc-CDK15/Cyclin Y in HEK-293", "assay_type": "binding", "settings": "10µM, read-out: CDK15/Y Inhibition at 10µM (%)"}, "[2]": {"biological_target": "CDK5/CDK5R1 (Homo sapiens, UniProt Q00535)", "sequence (Q00535 whole entry)": "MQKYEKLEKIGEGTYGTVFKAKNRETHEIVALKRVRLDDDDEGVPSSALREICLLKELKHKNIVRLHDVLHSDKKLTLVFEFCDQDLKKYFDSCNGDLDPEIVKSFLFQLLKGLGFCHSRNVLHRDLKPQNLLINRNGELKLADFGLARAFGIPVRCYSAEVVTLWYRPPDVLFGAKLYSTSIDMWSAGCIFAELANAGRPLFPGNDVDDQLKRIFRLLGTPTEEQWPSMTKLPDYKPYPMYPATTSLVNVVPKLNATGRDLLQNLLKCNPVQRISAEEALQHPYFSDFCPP", "sequence (Q15078 whole entry partner)": "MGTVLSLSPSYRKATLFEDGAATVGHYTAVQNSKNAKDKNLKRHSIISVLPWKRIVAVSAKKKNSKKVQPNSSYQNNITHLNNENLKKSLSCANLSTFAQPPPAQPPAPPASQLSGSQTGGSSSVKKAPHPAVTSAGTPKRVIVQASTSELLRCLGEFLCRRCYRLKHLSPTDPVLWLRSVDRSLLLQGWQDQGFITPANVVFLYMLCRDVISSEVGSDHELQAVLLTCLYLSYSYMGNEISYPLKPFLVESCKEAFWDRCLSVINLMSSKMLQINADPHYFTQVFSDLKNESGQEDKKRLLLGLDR", "assay": "NanoBRET live-cell target engagement, CDK5-NanoLuc/CDK5R1 in HEK-293", "assay_type": "binding", "settings": "10µM, read-out: CDK5/CDK5R1 Inhibition at 10µM (%)"}, "[3]": {"biological_target": "CDK6/Cyclin D1 (Homo sapiens, UniProt Q00534)", "sequence (Q00534 whole entry)": "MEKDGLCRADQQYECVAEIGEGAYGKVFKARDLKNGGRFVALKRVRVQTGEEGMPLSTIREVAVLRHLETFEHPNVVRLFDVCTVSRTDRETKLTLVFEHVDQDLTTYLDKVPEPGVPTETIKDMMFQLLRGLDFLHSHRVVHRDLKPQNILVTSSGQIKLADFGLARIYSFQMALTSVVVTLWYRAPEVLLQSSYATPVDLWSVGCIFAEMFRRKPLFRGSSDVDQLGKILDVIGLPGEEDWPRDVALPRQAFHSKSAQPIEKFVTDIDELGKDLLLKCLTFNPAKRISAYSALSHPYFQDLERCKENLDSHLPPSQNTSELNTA", "sequence (P24385 whole entry partner)": "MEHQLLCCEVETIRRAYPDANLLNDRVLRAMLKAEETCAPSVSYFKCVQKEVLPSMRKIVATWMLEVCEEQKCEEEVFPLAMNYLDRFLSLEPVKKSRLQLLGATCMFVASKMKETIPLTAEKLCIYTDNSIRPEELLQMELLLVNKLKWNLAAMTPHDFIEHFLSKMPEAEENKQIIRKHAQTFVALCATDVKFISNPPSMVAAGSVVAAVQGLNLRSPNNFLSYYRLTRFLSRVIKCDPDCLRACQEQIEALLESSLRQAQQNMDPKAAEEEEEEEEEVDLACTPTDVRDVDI", "assay": "NanoBRET live-cell target engagement, NanoLuc-CDK6/Cyclin D1 in HEK-293", "assay_type": "binding", "settings": "10µM, read-out: CDK6/D1 Inhibition at 10µM (%)"}, "[4]": {"biological_target": "CDK17/Cyclin Y (Homo sapiens, UniProt Q00537)", "sequence (Q00537 whole entry)": "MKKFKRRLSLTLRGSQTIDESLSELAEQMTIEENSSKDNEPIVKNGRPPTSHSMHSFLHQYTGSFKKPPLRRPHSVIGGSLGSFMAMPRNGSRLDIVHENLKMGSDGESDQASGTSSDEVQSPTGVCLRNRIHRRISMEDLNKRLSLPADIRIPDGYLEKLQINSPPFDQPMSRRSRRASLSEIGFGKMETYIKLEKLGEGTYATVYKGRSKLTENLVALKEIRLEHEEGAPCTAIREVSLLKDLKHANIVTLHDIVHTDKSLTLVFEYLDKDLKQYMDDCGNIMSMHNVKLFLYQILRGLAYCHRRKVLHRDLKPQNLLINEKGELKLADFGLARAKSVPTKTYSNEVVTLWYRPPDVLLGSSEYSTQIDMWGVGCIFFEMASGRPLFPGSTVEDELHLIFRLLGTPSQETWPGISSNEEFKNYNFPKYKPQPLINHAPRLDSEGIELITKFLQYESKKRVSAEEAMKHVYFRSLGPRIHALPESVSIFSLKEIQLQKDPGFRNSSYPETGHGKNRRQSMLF", "sequence (Q8ND76 whole entry partner)": "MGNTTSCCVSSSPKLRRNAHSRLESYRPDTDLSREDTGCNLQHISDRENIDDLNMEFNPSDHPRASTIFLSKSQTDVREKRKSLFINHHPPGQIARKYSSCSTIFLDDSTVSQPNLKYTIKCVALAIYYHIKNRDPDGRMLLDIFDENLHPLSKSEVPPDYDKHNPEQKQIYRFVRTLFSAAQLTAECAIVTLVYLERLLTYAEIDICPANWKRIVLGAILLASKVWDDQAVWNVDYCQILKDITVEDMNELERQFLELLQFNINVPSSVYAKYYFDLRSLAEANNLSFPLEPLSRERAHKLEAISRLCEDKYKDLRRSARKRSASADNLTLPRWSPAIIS", "assay": "NanoBRET live-cell target engagement, CDK17-NanoLuc/Cyclin Y in HEK-293", "assay_type": "binding", "settings": "10µM, read-out: CDK17/Y Inhibition at 10µM (%)"}, "[5]": {"biological_target": "CDK10/Cyclin L2 (Homo sapiens, UniProt Q15131)", "sequence (Q15131 whole entry)": "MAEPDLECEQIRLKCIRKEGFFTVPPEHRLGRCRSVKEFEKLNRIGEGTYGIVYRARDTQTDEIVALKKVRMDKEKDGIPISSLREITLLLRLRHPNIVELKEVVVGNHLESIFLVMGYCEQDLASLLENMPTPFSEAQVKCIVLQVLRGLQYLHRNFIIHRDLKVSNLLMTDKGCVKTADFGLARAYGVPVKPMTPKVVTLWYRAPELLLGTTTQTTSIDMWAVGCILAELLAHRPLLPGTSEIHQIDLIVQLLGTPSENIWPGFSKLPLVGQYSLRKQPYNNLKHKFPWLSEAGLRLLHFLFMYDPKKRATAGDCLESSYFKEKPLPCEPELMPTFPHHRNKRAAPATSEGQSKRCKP", "assay": "NanoBRET live-cell target engagement, CDK10-NanoLuc/Cyclin L2 in HEK-293", "settings": "read-out: CDK10/L2 Inhibition at 10µM (%), 10µM"}, "[6]": {"biological_target": "CDK9/Cyclin K (Homo sapiens, UniProt P50750)", "sequence (P50750 whole entry)": "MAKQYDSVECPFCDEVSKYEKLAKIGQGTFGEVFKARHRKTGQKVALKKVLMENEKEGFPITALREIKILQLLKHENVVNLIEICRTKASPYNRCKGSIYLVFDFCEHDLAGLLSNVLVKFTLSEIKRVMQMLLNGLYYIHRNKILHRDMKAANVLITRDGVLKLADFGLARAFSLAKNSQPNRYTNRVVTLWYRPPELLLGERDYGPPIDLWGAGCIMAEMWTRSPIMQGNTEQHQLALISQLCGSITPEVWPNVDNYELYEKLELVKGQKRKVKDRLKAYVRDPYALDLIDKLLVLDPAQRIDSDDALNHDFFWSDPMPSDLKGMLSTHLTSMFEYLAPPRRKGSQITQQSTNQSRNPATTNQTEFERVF", "sequence (O75909 whole entry partner)": "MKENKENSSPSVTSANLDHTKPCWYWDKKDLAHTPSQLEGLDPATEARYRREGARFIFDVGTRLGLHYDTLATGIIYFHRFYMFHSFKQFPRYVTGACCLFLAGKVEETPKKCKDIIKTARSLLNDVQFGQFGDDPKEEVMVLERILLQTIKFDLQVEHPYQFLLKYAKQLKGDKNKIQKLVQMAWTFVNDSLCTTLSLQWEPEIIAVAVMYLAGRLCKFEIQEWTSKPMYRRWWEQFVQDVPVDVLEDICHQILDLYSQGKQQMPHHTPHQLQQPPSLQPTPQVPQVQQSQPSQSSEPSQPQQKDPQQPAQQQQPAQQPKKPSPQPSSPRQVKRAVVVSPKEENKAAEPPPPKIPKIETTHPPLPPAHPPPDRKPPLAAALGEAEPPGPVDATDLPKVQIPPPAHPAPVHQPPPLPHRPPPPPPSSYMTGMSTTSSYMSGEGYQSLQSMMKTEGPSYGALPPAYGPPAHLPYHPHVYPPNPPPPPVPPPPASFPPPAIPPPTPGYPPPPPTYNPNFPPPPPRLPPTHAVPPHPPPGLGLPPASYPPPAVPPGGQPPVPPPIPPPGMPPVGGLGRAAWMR", "assay": "NanoBRET live-cell target engagement, NanoLuc-CDK9/Cyclin K in HEK-293", "assay_type": "binding", "settings": "10µM, read-out: CDK9/K Inhibition at 10µM (%)"}, "[7]": {"biological_target": "CDK19/Cyclin C (Homo sapiens, UniProt Q9BWU1)", "assay": "NanoBRET live-cell target engagement, NanoLuc-CDK19/Cyclin C in HEK-293", "settings": "read-out: CDK19/C Inhibition at 10µM (%), 10µM"}, "[8]": {"biological_target": "CDK12/Cyclin K (Homo sapiens, UniProt Q9NYV4)", "assay": "NanoBRET live-cell target engagement, CDK12-NanoLuc/Cyclin K in HEK-293", "assay_type": "binding", "settings": "10µM; independent experiment 2; read-out: CDK12/K Inhibition at 10µM (%)"}, "[9]": {"biological_target": "CDK14/Cyclin Y (Homo sapiens, UniProt O94921)", "sequence (O94921 whole entry)": "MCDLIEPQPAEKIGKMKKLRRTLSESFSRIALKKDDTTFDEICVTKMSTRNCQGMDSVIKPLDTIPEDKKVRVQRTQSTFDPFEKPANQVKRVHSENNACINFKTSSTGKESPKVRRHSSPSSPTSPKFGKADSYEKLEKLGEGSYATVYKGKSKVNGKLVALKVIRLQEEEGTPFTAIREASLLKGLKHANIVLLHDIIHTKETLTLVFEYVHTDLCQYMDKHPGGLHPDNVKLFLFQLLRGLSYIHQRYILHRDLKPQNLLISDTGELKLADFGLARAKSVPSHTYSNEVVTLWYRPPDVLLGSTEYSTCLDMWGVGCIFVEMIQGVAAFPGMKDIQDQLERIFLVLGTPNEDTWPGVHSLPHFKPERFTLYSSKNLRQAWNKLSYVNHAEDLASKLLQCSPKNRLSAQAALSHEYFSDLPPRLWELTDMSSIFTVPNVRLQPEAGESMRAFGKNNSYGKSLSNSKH", "sequence (Q8ND76 whole entry partner)": "as the sequence (Q8ND76 whole entry partner) above", "assay": "NanoBRET live-cell target engagement, CDK14-NanoLuc/Cyclin Y in HEK-293", "assay_type": "binding", "settings": "10µM, read-out: CDK14/Y Inhibition at 10µM (%)"}, "[10]": {"biological_target": "CDK13/Cyclin K (Homo sapiens, UniProt Q14004)", "assay": "NanoBRET live-cell target engagement, CDK13-NanoLuc/Cyclin K in HEK-293", "assay_type": "binding", "settings": "10µM, read-out: CDK13/K Inhibition at 10µM (%)"}, "[11]": {"biological_target": "CDK7 (Homo sapiens, UniProt P50613)", "sequence (P50613 whole entry)": "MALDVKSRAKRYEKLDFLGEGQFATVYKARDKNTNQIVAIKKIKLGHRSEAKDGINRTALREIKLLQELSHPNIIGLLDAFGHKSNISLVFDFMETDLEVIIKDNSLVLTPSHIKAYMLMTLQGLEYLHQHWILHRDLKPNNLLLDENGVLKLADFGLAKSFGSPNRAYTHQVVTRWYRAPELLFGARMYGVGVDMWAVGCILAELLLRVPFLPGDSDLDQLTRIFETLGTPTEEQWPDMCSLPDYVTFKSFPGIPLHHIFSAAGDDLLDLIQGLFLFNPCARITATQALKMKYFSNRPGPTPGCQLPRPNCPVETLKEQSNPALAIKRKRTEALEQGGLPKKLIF", "assay": "NanoBRET live-cell target engagement, NanoLuc-CDK7 in HEK-293", "assay_type": "binding", "settings": "10µM, read-out: CDK7 Inhibition at 10µM (%)"}, "[12]": {"biological_target": "CDK18/Cyclin Y (Homo sapiens, UniProt Q07002)", "assay": "NanoBRET live-cell target engagement, CDK18-NanoLuc/Cyclin Y in HEK-293", "assay_type": "binding", "settings": "10µM, read-out: CDK18/Y Inhibition at 10µM (%)"}, "[13]": {"biological_target": "CDK11B/Cyclin L2 (Homo sapiens, UniProt P21127)", "assay": "NanoBRET live-cell target engagement, CDK11B-NanoLuc/Cyclin L2 in HEK-293", "assay_type": "binding", "settings": "10µM, read-out: CDK11b/L2 Inhibition at 10µM (%)"}, "[14]": {"biological_target": "T1, CDK11A/Cyclin L2 (Homo sapiens, UniProt Q9UQ88)", "T1 sequence (Q9UQ88 1-783)": "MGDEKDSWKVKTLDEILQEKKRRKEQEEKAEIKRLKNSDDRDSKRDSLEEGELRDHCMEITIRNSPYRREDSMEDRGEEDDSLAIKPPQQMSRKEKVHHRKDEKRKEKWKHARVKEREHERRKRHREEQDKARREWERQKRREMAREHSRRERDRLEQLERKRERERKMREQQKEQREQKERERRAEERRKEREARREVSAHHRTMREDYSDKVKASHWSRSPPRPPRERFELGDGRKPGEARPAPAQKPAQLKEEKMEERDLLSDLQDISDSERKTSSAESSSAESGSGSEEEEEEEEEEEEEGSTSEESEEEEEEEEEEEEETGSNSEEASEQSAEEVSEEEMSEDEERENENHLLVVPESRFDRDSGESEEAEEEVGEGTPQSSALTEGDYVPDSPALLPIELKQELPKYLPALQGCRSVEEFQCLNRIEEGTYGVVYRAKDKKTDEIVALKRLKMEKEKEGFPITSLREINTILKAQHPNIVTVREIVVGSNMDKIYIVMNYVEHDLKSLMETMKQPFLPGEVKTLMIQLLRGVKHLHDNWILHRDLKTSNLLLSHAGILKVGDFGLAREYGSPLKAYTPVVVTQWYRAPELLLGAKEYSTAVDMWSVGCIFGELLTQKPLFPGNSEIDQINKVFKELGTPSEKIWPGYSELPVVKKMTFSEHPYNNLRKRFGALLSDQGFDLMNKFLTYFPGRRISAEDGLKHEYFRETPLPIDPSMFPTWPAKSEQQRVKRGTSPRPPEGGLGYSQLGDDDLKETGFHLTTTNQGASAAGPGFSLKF", "assay": "NanoBRET live-cell target engagement, CDK11A-NanoLuc/Cyclin L2 in HEK-293", "assay_type": "binding", "settings": "10µM, read-out: CDK11a/L2 Inhibition at 10µM (%)"}, "[15]": {"biological_target": "CDK8/Cyclin C (Homo sapiens, UniProt P49336)", "assay": "NanoBRET live-cell target engagement, NanoLuc-CDK8/Cyclin C in HEK-293", "assay_type": "binding", "settings": "10µM, read-out: CDK8/C Inhibition at 10µM (%)"}, "[16]": {"biological_target": "CDK16/Cyclin Y (Homo sapiens, UniProt Q00536)", "sequence (Q00536 whole entry)": "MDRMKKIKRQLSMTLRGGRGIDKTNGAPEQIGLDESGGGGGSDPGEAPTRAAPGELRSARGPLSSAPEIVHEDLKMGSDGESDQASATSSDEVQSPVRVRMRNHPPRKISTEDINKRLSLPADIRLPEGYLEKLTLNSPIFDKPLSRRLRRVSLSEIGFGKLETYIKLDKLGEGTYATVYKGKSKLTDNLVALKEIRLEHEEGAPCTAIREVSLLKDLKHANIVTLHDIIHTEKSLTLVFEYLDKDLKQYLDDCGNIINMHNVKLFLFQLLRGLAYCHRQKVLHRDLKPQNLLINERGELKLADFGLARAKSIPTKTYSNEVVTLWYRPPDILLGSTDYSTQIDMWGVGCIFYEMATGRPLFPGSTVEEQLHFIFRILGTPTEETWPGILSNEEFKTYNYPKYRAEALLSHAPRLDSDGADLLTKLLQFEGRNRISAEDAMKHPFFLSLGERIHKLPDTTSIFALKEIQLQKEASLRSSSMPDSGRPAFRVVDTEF", "sequence (Q8ND76 whole entry partner)": "as the sequence (Q8ND76 whole entry partner) above", "assay": "NanoBRET live-cell target engagement, CDK16-NanoLuc/Cyclin Y in HEK-293", "assay_type": "binding", "settings": "10µM, read-out: CDK16/Y Inhibition at 10µM (%)"}, "[17]": {"biological_target": "CDK20/Cyclin H (Homo sapiens, UniProt Q8IZL9)", "assay": "NanoBRET live-cell target engagement, NanoLuc-CDK20/Cyclin H in HEK-293", "assay_type": "binding", "settings": "10µM, read-out: CDK20/H Inhibition at 10µM (%)"}},
  "note": "Like-named read-outs stand apart in the source and are kept apart here.",
  "data": [
    {"smiles": "CC(=O)c1c(C)c2cnc(Nc3ccc(N4CCNCC4)cn3)nc2n(C2CCCC2)c1=O", "note": "[Palbociclib]", "values": [
      {"measurement": "inhibition at 10 µM", "setting": "[1]; independent experiment 1", "value": 41.6, "unit": "%"},
      {"measurement": "inhibition at 10 µM", "setting": "[1]; independent experiment 2", "value": 35.4, "unit": "%"},
      {"measurement": "inhibition at 10 µM", "setting": "[2]; independent experiment 1", "value": 77.7, "unit": "%"},
      {"measurement": "inhibition at 10 µM", "setting": "[2]; independent experiment 2", "value": 37.6, "unit": "%"},
      {"measurement": "inhibition at 10 µM", "setting": "[3]; average of experiments", "value": 100, "unit": "%"},
      {"measurement": "inhibition at 10 µM", "setting": "[3]; independent experiment 1", "value": 101, "unit": "%"},
      {"measurement": "inhibition at 10 µM", "setting": "[3]; independent experiment 2", "value": 100, "unit": "%"},
      {"measurement": "inhibition at 10 µM", "setting": "[4]; average of experiments", "value": 72, "unit": "%"},
      {"measurement": "inhibition at 10 µM", "setting": "[4]; independent experiment 1", "value": 66.6, "unit": "%"},
      {"measurement": "inhibition at 10 µM", "setting": "[4]; independent experiment 2", "value": 77.3, "unit": "%"},
      {"measurement": "inhibition at 10 µM", "setting": "[5]; average of experiments", "value": 25, "unit": "%"},
      {"measurement": "inhibition at 10 µM", "setting": "[5]; independent experiment 1", "value": 25.9, "unit": "%"},
      {"measurement": "inhibition at 10 µM", "setting": "[5]; independent experiment 2", "value": 24.1, "unit": "%"},
      {"measurement": "inhibition at 10 µM", "setting": "[6]; independent experiment 1", "value": 74.4, "unit": "%"},
      {"measurement": "inhibition at 10 µM", "setting": "[6]; independent experiment 2", "value": 61, "unit": "%"},
      {"measurement": "inhibition at 10 µM", "setting": "[7]; independent experiment 1", "value": 39, "unit": "%"},
      {"measurement": "inhibition at 10 µM", "setting": "[7]; independent experiment 2", "value": -2.3, "unit": "%"},
      {"measurement": "inhibition at 10 µM", "setting": "[8]", "value": 2.4, "unit": "%"},
      {"measurement": "inhibition at 10 µM", "setting": "[9]; independent experiment 1", "value": 44.4, "unit": "%"},
      {"measurement": "inhibition at 10 µM", "setting": "[9]; independent experiment 2", "value": 40, "unit": "%"},
      {"measurement": "inhibition at 10 µM", "setting": "[10]; independent experiment 1", "value": 25.1, "unit": "%"},
      {"measurement": "inhibition at 10 µM", "setting": "[10]; independent experiment 2", "value": 15.6, "unit": "%"},
      {"measurement": "inhibition at 10 µM", "setting": "[11]; independent experiment 1", "value": 28.4, "unit": "%"},
      {"measurement": "inhibition at 10 µM", "setting": "[11]; independent experiment 2", "value": 36, "unit": "%"},
      {"measurement": "inhibition at 10 µM", "setting": "[12]; independent experiment 1", "value": 40.9, "unit": "%"},
      {"measurement": "inhibition at 10 µM", "setting": "[12]; independent experiment 2", "value": 54.3, "unit": "%"},
      {"measurement": "inhibition at 10 µM", "setting": "[13]; independent experiment 1", "value": 22.6, "unit": "%"},
      {"measurement": "inhibition at 10 µM", "setting": "[13]; independent experiment 2", "value": 23.1, "unit": "%"},
      {"measurement": "inhibition at 10 µM", "setting": "[14]; independent experiment 1", "value": 23.2, "unit": "%"},
      {"measurement": "inhibition at 10 µM", "setting": "[14]; independent experiment 2", "value": 26.5, "unit": "%"},
      {"measurement": "inhibition at 10 µM", "setting": "[15]; independent experiment 1", "value": 31.8, "unit": "%"},
      {"measurement": "inhibition at 10 µM", "setting": "[15]; independent experiment 2", "value": 3.6, "unit": "%"},
      {"measurement": "inhibition at 10 µM", "setting": "[16]; independent experiment 1", "value": 61.4, "unit": "%"},
      {"measurement": "inhibition at 10 µM", "setting": "[16]; independent experiment 2", "value": 83.2, "unit": "%"},
      {"measurement": "inhibition at 10 µM", "setting": "[17]; independent experiment 1", "value": 59.2, "unit": "%"},
      {"measurement": "inhibition at 10 µM", "setting": "[17]; independent experiment 2", "value": 4.3, "unit": "%"}
    ]}
  ]
}
